Each molecule was assayed against T1, HGFR (Homo sapiens, UniProt P08581) (assay: HGFR continuous-coupled spectrophotometric assay). Details: Table 3; Ki(μM) or I(%); test concentration not given.
T1 construct: purchased Upstate 14-526
Format: biochemical

T1 sequence (P08581 974-1390 limits assumed): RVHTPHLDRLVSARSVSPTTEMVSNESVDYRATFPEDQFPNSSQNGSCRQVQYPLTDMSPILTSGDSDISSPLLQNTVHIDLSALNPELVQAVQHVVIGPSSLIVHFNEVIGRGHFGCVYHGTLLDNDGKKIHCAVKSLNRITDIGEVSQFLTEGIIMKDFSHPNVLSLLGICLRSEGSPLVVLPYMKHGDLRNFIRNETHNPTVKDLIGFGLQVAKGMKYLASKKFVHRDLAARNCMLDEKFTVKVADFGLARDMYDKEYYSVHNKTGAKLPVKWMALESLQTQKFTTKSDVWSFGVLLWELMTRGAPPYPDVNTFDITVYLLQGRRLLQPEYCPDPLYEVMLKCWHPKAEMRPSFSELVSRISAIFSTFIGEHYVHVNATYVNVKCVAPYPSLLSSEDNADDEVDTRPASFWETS

Going from `Cc1ccccc1COc1cc(-c2ccc(C(=O)N3CCC(N4CCCC4)CC3)cc2)cnc1N` [Example I-627, {4-[6-Amino-5-(2-methyl-benzxloxy)-pyridin-3-yl]-phenyl}-(4-pyrrolidin-1-yl-piperidin-1-yl)-methanone] to `Nc1ncc(-c2ccc(C(=O)N3CCC(N4CCCC4)CC3)cc2)cc1OCc1ccccc1` [Example I-649, [4-(6-Amino-5-benzyloxy-pyridin-3-yl)-phenyl]-(4-pyrrolidin-1-yl-piperidin-1-yl)-methanone], the “I(%)” value rises from 6% to 29%.

Compared with `Nc1ncc(-c2ccc(C(=O)N3CCC(N4CCCC4)CC3)cc2)cc1OCC1CCCCC1` [Example I-628, [4-(6-Amino-5-cyclohexylmethoxy-pyridin-3-yl)-phenyl]-(4-pyrrolidin-1-yl-piperidin-1-yl)-methanone], `Cc1cc(C)c(COc2cc(-c3ccc(C(=O)N4CCC(N5CCCC5)CC4)cc3)cnc2N)c(C)c1` [Example I-653, {4-[6-Amino-5-(2,4,6-trimethyl-benzyloxy)-pyridin-3-yl]-phenyl}-(4-pyrrolidin-1-yl-piperidin-1-yl)-methanone] is lower in “I(%)” value: 7% for the first, 2% for the second.

Compared with `CC(Oc1cc(-c2ccc(C(=O)N3CCC(N4CCCC4)CC3)cc2)cnc1N)c1ccc(C(=O)NCCc2cccc(O)c2)cc1` (stereo not drawn) [Example I-629, 4-(1-{2-Amino-5-[4-(4-pyrrolidin-1-yl-piperidine-1-carbonyl)-phenyl]-pyridin-3-yloxy}-ethyl)-[2-(3-hydroxy-phenyl)-ethyl]-benzamide], `CC(Oc1cc(-c2ccc(C(=O)N3CCC(N4CCCC4)CC3)cc2)cnc1N)c1ccc(C(=O)NCCCN2CCCC2=O)cc1` (stereo not drawn) [Example I-632, 4-(1-{2-Amino-5-[4-(4-pyrrolidin-1-yl-piperidine-1-carbonyl)-phenyl)-pyridin-3-yloxy}-ethyl)-[3-(2-oxo-pyrrolidin-1-yl)-propyl]-benzamide] is lower in “I(%)” value: 7% for the first, 0% for the second.

First: CC(Oc1cc(-c2ccc(C(=O)N3CCC(N4CCCC4)CC3)cc2)cnc1N)c1ccc(C(=O)NC2CCN(Cc3ccccc3)CC2)cc1 (stereo not drawn) [Example I-631]
Second: Cc1cc(C)c(C)c(COc2cc(-c3ccc(C(=O)N4CCC(N5CCCC5)CC4)cc3)cnc2N)c1C [Example I-654, {4-[6-Amino-5-(2,3,5,6-tetramethyl-benzyloxy)-pyridin-3-yl]-phenyl)-(4-pyrrolidin-1-yl-piperidin-1-yl)-methanone]
The “I(%)” value of the first is lower: 3% for the first, 9% for the second.

Going from `CC1CN(C(=O)c2ccc(-c3cnc(N)c(OCc4c(Cl)cccc4Cl)c3)cc2)CC(C)N1` (stereo not drawn) [Example I-634, {4-[6-Amino-5-(2,6-dichloro-benzyloxy)-pyridin-3-yl]-phenyl}-(3,5-dimethyl-piperazin-1-yl)-methanone] to `CC(Oc1cc(-c2nccn2C)cnc1N)c1c(Cl)ccc(F)c1Cl` (stereo not drawn) [Example I-652], the “I(%)” value rises from 10% to 11%.

Same assay, conditions: Table 5; percent c-MET inhibition at 50 nM

Compared with `CC(Oc1cc(-c2ccc(C(=O)N[C@H]3CC[C@H](O)CC3)cc2)cnc1N)c1c(Cl)ccc(F)c1Cl` (stereo partly drawn) [drawing 1039], `CC(Oc1cc(-c2ccc(C(=O)N[C@H](C)C3CCCCC3)cc2)cnc1N)c1c(Cl)ccc(F)c1Cl` (stereo partly drawn) [drawing 1068] is lower in inhibition at 0.05 µM: 73% for the first, 60% for the second.

Same assay, conditions: Table 5; percent c-MET inhibition at 50 nM; 0.05 µM

`CC(Oc1cc(-c2ccc(C(=O)N[C@H]3CC[C@H](O)CC3)cc2)cnc1N)c1c(Cl)ccc(F)c1Cl` (stereo partly drawn) [drawing 1011] was tested, and the “% inhibition” value was “% inhibition = 72”.
`CC(Oc1cc(-c2ccc(C(=O)N[C@H](C)C3CCCCC3)cc2)cnc1N)c1c(Cl)ccc(F)c1Cl` (stereo partly drawn) [drawing 1071] was tested, and the “% inhibition” value was “% inhibition = 54”.

The molecules below were run against T2, GST fusion protein containing the Met kinase domain (Homo sapiens, UniProt P08581) (assay: MET transphosphorylation assay (ELISA, poly(glu-tyr) substrate)). Details: not given.
T2 construct: Purified GST fusion protein containing the Met kinase domain, SUGEN, Inc
Format: biochemical

T2 sequence (P08581 1078-1345 limits assumed): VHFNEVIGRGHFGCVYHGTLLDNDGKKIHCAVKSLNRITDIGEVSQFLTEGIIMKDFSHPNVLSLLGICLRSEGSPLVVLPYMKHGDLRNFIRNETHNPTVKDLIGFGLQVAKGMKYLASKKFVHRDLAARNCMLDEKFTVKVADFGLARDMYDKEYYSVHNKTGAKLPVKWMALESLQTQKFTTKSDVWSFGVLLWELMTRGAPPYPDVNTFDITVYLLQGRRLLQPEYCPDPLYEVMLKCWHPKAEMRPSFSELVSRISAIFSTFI

`Nc1ncc(-c2ccccc2)cc1OCc1c(Cl)cccc1Cl` [Example I-9, 3-(2,6-Dichloro-benzyloxy)-5-phenyl-pyridin-2-ylamine] gave an IC50 of 3.9 µM.

Reference: patent publication US8106197B2, “Aminoheteroaryl compounds as protein kinase inhibitors” (Pfizer Inc., priority 2003, dated 2012)
